Experimental data reported in patent US7745161B2, “Amplification of enzymatic reactions for use with an enthalpy array” (Palo Alto Research Center Incorporated, priority 2003, dated 2010).

Target: T1, GPCR P2Y6 receptor complex (Homo sapiens, UniProt Q15077)
T1 construct: made in house; host or cells: baculovirus-inoculated insect cell (membrane fragments)
Experiment: Nanocalorimetry measurement of agonist binding to a GPCR, amplified by G-protein hydrolysis of GTP
Type: biochemical
Details: after merging [UDP]=0.4 mM, [GTP]=1.15 mM
From the text: We have measured reactions involving agonist binding to a GPCR (G-protein coupled receptor), at low GPCR concentration, by using the associated G-protein hydrolysis of GTP as the source of the amplified heat of reaction. Most of the heat in this example is from GTP hydrolysis by G-proteins activated by a GPCR with a bound agonist. GPCRs are transmembrane proteins that bind […] (e.g. agonist or inhibitor) on the extracellular side and, upon receptor binding, cause a G-protein (also a membrane protein) on the intracellular side to exchange GDP for GTP. After binding GTP, the G-protein dissociates from the GPCR, and the α subunit dissociates from the β-γ complex. The α subunit and β-γ complex can then migrate independently along the membrane and interact with targets.
Explaining this measurement in terms of FIG. 2A, the GPCR is the primary enzyme 44. We refer to the GPCR as an enzyme because it catalyzes the exchange of GDP for GTP on the G-protein and the subsequent dissociation of the α subunit of the G-protein from the β-γ complex. The G-protein before the GDP-GTP exchange and dissociation can be considered the substrate 40. The GPCR is also […], and as such it is activated in this example by binding of agonist, which is therefore an activator 42. The products 46 of the primary enzymatic reaction are the α subunit and β-γ complex of the dissociated G-protein. […]

T1 sequence (Q15077 whole entry, the tested form may be a part, one chain of several): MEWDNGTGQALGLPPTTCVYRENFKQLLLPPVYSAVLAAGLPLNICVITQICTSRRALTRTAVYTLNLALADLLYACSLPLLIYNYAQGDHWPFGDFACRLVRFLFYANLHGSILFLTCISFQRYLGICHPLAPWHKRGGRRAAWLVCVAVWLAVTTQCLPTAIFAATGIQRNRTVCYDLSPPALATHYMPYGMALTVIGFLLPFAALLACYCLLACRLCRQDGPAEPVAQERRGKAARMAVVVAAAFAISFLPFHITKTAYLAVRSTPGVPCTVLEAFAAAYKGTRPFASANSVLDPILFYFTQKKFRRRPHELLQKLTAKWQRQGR

In the case of `O=c1ccn([C@@H]2O[C@H](COP(=O)(O)OP(=O)(O)O)[C@@H](O)[C@H]2O)c(=O)[nH]1` [UDP], the “nanocalorimeter signal magnitude (differential temperature)” value (fragmented membranes with over-expressed P2Y6, 1 mg/ml total protein, 250 nL drops) is reported as 1.2 m° C and the “duration of nanocalorimeter signal after the drops are merged” value (fragmented membranes with over-expressed P2Y6) is reported as 1 to 2 s.
